The source of these data is patent publication US9365522B2, “Pyrazole amide derivative” (AMGEN INC., priority 2015, dated 2016).

The assay deals with T1, ligand binding domain of human ROR gamma (Homo sapiens, UniProt P51449).
T1 construct: NM_001001523; expressed in transfected cells; host or cells: HEK293T
T1 sequence (P51449 247-497 isoform P51449-2): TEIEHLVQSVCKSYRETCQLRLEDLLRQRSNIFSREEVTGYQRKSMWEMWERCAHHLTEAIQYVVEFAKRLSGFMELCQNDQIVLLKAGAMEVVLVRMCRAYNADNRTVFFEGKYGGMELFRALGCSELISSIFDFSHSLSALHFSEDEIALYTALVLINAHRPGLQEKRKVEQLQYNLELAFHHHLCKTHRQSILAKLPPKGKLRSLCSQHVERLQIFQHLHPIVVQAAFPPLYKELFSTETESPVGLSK
The assay is described as follows: ROR gamma reporter gene assay (GAL4-RORγ LBD luciferase, Dual-Glo). The settings on record: HEK293T cells transfected with pM-ROR gamma, 8 concentrations 3.5 nM to 10.5 μM, 24 h incubation; read-out: result (pIC50, inhibition of RORγ transcriptional activity) (converted). Type of assay: cell-based. In short, it runs like this: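 HEK293T cells were co-transfected with GAL4 DBD fused to human RORγ LBD (aa 247-497), a 5×UAS firefly luciferase reporter and CMV-driven renilla luciferase, in medium with 10% charcoal-stripped FBS.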
On the technique in general: Reporter assays use an easily measured gene product as a stand-in for the process of interest.

As for `O=C(CN(CC1(F)CCCC1)C(=O)c1cnn([C@H]2CC[C@H](C(=O)O)CC2)c1C(F)(F)F)c1c(Cl)cncc1Cl` [Example 194, trans-4-(4-((2-(3,5-dichloropyridin-4-yl)-2-oxoethyl)-((1-fluorocyclopentyl)methyl)carbamoyl)-5-(trifluoromethyl)pyrazol-1-yl)cyclohexane-1-carboxylic acid], the IC50 is 14100 pM.
For the compound `O=C(CN(Cc1ccc(F)cc1)C(=O)c1cnn([C@H]2CC[C@H](C(=O)O)CC2)c1C(F)(F)F)c1c(Cl)cc[nH]c1=O` [Example 195, trans-4-(4-((2-(4-chloro-2-oxo-1H-pyridin-3-yl)-2-oxoethyl)-((4-fluorophenyl)methyl)carbamoyl)-5-(trifluoromethyl)pyrazol-1-yl)cyclohexane-1-carboxylic acid], the IC50 was more than 1e+07 pM.
`CC1(C)CCC(N(CC(=O)c2c(Cl)cncc2Cl)C(=O)c2cnn([C@H]3CC[C@](C)(C(=O)O)CC3)c2C(F)F)CC1` [Example 196, trans-4-(4-((2-(3,5-dichloropyridin-4-yl)-2-oxoethyl)-(4,4-dimethylcyclohexyl)carbamoyl)-5-(difluoromethyl)pyrazol-1-yl)-1-methylcyclohexane-1-carboxylic acid]: the IC50 was 3.47e+06 pM.
As for `C[C@]1(C(=O)O)CC[C@H](n2ncc(C(=O)N(CC(=O)c3c(Cl)cc(F)cc3Cl)Cc3cc(F)cc(F)c3)c2C(F)F)CC1` [Example 197, trans-4-(4-((2-(2,6-dichloro-4-fluorophenyl)-2-oxoethyl)-((3,5-difluorophenyl)methyl)carbamoyl)-5-(difluoromethyl)pyrazol-1-yl)-1-methylcyclohexane-1-carboxylic acid], the IC50 was 513000 pM.
The value for `O=C(CN(C(=O)c1cnn([C@H]2CC[C@H](C(=O)O)CC2)c1C(F)(F)F)C1CCOC1)c1c(Cl)cncc1Cl` (stereo partly drawn) [Example 198, trans-4-(4-((2-(3,5-dichloropyridin-4-yl)-2-oxoethyl)-(oxolan3-yl)carbamoyl)-5-(trifluoromethyl)pyrazol-1-yl)cyclohexane-1-carboxylic acid] was more than 1e+07 pM; that for `CC1(C)[C@@H]2C[C@H](N(CC(=O)c3c(Cl)cc(F)cc3Cl)C(=O)c3cnn([C@H]4CC[C@](C)(C(=O)O)CC4)c3C(F)(F)F)C[C@@H]21` [Example 199, trans-4-(4-((2-(2,6-dichloro-4-fluorophenyl)-2-oxoethyl)-((1R,3r,5S)-6,6-dimethyl-3-bicyclo[3.1.0]hexanyl)carbamoyl)-5-(trifluoromethyl)pyrazol-1-yl)-1-methylcyclohexane-1-carboxylic acid] was 5010 pM.
For the compound `O=C(CN(CC1CC2(CC2)C1)C(=O)c1cnn([C@H]2CC[C@H](C(=O)O)CC2)c1C(F)(F)F)c1c(Cl)cncc1Cl` [Example 200, trans-4-(4-((2-(3,5-dichloropyridin-4-yl)-2-oxoethyl)-(spiro[2.3]hexan-5-ylmethyl)carbamoyl)-5-(trifluoromethyl)pyrazol-1-yl)cyclohexane-1-carboxylic acid], the IC50 is 15800 pM.
To `Cn1nc(Cl)c(C(=O)CN(Cc2cc(F)cc(F)c2)C(=O)c2cnn([C@H]3CC[C@H](C(=O)O)CC3)c2C(F)(F)F)c1Cl` [Example 201, trans-4-(4-((2-(3,5-dichloro-1-methylpyrazol-4-yl)-2-oxoethyl)-((3,5-difluorophenyl)methyl)carbamoyl)-5-(trifluoromethyl)pyrazol-1-yl)cyclohexane-1-carboxylic acid] belongs more than 1e+07 pM; to `C[C@]1(C(=O)O)CC[C@H](n2ncc(C(=O)N(CC(=O)c3c(Cl)cc(F)cc3Cl)CC3CC4(CC4)C3)c2C(F)(F)F)CC1` [Example 202, trans-4-(4-((2-(2,6-dichloro-4-fluorophenyl)-2-oxoethyl)-(spiro[2.3]hexan-5-ylmethyl)carbamoyl)-5-(trifluoromethyl)pyrazol-1-yl)-1-methylcyclohexane-1-carboxylic acid], 7940 pM; to `CC(C)(C)CC1CC(N(CC(=O)c2c(Cl)cc(F)cc2Cl)C(=O)c2cnn([C@H]3CC[C@](C)(C(=O)O)CC3)c2C(F)(F)F)C1` (stereo partly drawn) [Example 203, trans-4-(4-((2-(2,6-dichloro-4-fluorophenyl)-2-oxoethyl)-(3-(2,2-dimethylpropyl)cyclobutyl)carbamoyl)-5-(trifluoromethyl)pyrazol-1-yl)-1-methylcyclohexane-1-carboxylic acid], 912000 pM.
To `CC(C1CC2(CC2)C1)N(CC(=O)c1c(Cl)cncc1Cl)C(=O)c1cnn([C@H]2CC[C@H](C(=O)O)CC2)c1C(F)(F)F` (stereo partly drawn) [Example 204, trans-4-(4-((2-(3,5-dichloropyridin-4-yl)-2-oxoethyl)-(1-spiro[2.3]hexan-5-ylethyl)carbamoyl)-5-(trifluoromethyl)pyrazol-1-yl)cyclohexane-1-carboxylic acid] belongs 60300 pM.
Take `CC1(C)CCCC(N(CC(=O)c2c(Cl)cncc2Cl)C(=O)c2cnn([C@H]3CC[C@H](C(=O)O)CC3)c2C(F)(F)F)C1` (stereo partly drawn) [Example 205, trans-4-(4-((2-(3,5-dichloropyridin-4-yl)-2-oxoethyl)-(3,3-dimethylcyclohexyl)carbamoyl)-5-(trifluoromethyl)pyrazol-1-yl)cyclohexane-1-carboxylic acid]: the IC50 was 138000 pM.
To `Cc1cc(Cl)c(C(=O)CN(CC#CC(C)(C)C)C(=O)c2cnn([C@H]3CC[C@](C)(C(=O)O)CC3)c2C(F)(F)F)c(Cl)c1` [Example 206, trans-4-(4-((2-(2,6-dichloro-4-methylphenyl)-2-oxoethyl)-(4,4-dimethylpent-2-ynyl)carbamoyl)-5-(trifluoromethyl)pyrazol-1-yl)-1-methylcyclohexane-1-carboxylic acid] belongs 100000 pM; to `CC(C)(C)C#CCN(CC(=O)c1c(Cl)cc(Cl)cc1Cl)C(=O)c1cnn([C@H]2CC[C@](C)(C(=O)O)CC2)c1C(F)(F)F` [Example 207, trans-4-(4-(4,4-dimethylpent-2-ynyl-(2-oxo-2-(2,4,6-trichlorophenyl)ethyl)carbamoyl)-5-(trifluoromethyl)pyrazol-1-yl)-1-methylcyclohexane-1-carboxylic acid], 63100 pM; to `CC1(C)CC(N(CC(=O)c2c(Cl)cncc2Cl)C(=O)c2cnn([C@H]3CC[C@H](C(=O)O)CC3)c2C(F)(F)F)CO1` (stereo partly drawn) [Example 208, trans-4-(4-((2-(3,5-dichloropyridin-4-yl)-2-oxoethyl)-(5,5-dimethyloxolan-3-yl)carbamoyl)-5-(trifluoromethyl)pyrazol-1-yl)cyclohexane-1-carboxylic acid], 302000 pM.
Regarding `O=C(CN(Cc1cc(F)cc(F)c1)C(=O)c1cnn([C@H]2CC[C@H](C(=O)O)CC2)c1C(F)(F)F)c1c(Cl)n[nH]c1Cl` [Example 209, trans-4-(4 ((2-(3,5-dichloro-1H-pyrazol-4-yl)-2-oxoethyl)-((3,5-difluorophenyl)methyl)carbamoyl)-5-(trifluoromethyl)pyrazol-1-yl)cyclohexane-1-carboxylic acid], the IC50 was more than 1e+07 pM.
As for `CC1(C#N)CCC(N(CC(=O)c2c(Cl)cncc2Cl)C(=O)c2cnn([C@H]3CC[C@H](C(=O)O)CC3)c2C(F)(F)F)C1` (stereo partly drawn) [Example 210, trans-4-(4-((3-cyano-3-methylcyclopentyl)-(2-(3,5-dichloropyridin-4-yl)-2-oxoethyl)carbamoyl)-5-(trifluoromethyl)pyrazol-1-yl)cyclohexane-1-carboxylic acid], the IC50 is 1.02e+06 pM.
With `CC1(C)[C@@H]2C[C@H](N(CC(=O)c3c(Cl)cncc3Cl)C(=O)c3cnn([C@H]4CC[C@H](C(=O)O)CC4)c3C(F)(F)F)C[C@@H]21` [Example 211, trans-4-(4-((2-(3,5-dichloropyridin-4-yl)-2-oxoethyl)-((1R,3r,5S)-6,6-dimethyl-3-bicyclo[3.1.0]hexanyl)carbamoyl)-5-(trifluoromethyl)pyrazol-1-yl)cyclohexane-1-carboxylic acid], the IC50 was 22400 pM.
To `O=C(CN(C(=O)c1cnn([C@H]2CC[C@H](C(=O)O)CC2)c1C(F)(F)F)[C@H]1CC[C@@H](C(F)(F)F)CC1)c1c(Cl)cncc1Cl` [Example 212, trans-4-(4-((2-(3,5-dichloropyridin-4-yl)-2-oxoethyl)-(4-(trifluoromethyl)cyclohexyl)carbamoyl)-5-(trifluoromethyl)pyrazol-1-yl)cyclohexane-1-carboxylic acid] belongs 20000 pM; to `O=C(CN(C(=O)c1cnn([C@H]2CC[C@H](C(=O)O)CC2)c1C(F)(F)F)[C@H]1CC[C@H](C(F)(F)F)CC1)c1c(Cl)cncc1Cl` [Example 213, trans-4-(4-((2-(3,5-dichloropyridin-4-yl)-2-oxoethyl)-(4-(trifluoromethyl)cyclohexyl)carbamoyl)-5-(trifluoromethyl)pyrazol-1-yl)cyclohexane-1-carboxylic acid], 112000 pM.
With `COc1cccc(Cl)c1C(=O)CN(CC#CC(C)(C)C)C(=O)c1cnn([C@H]2CC[C@](C)(C(=O)O)CC2)c1C(F)(F)F` [Example 214, trans-4-(4-((2-(2-chloro-6-methoxyphenyl)-2-oxoethyl)-(4,4-dimethylpent-2-ynyl)carbamoyl)-5-(trifluoromethyl)pyrazol-1-yl)-1-methylcyclohexane-1-carboxylic acid], the IC50 is 324000 pM.
